Measured values: patent US20050282818A1, “Ubiquitin ligase inhibitors” (Rigel Pharmaceuticals, Inc., priority 2004, published 2005)
Like-named read-outs stand apart in the source and are kept apart here.

Columns and labels:
A549 cells = experiment: Cell proliferation PAD assay, A549; assay type: cell-based; conditions: Homo sapiens, 48 hours
Experimental: (§1) Cell lines used are available from American Type Culture Collection (ATCC), for example, cell cultures containing A549 (ATCC# CCL-185), HeLa (ATCC# CCL-2), HCT116 ATTC# CCL-247), and H1299 (ATCC# CRL-5803) cells were maintained in T175 flasks following the ATCC recommended media and handling procedures. […] A 20,000 cells/ml solution was made for plating. Cells were plated in black Packard 96 well plates by placing 100 μl per well (2,000 cells per well). […] The definitions of the cell types used are as follows: A549 is lung carcinoma; HI 299 is non-small cell lung carcinoma; HI 155 is non-small cell lung carcinoma; AsPC-1 is pancreatic adenocarcinoma; Caov-3 is ovarian adenocarcinoma; COLO 205 is colorectal adenocarcinoma; DLD-1 colorectal adenocarcinoma; HCT116 is colorectal carcinoma; DU 145 is prostate carcinoma; ES-2 is ovarian clear cell carcinoma; H460 is large cell lung carcinoma; HELA is cervical adenocarcinoma; MIA PaCa-2 is pancreatice carcinoma; OVCAR-3 is ovarian adenocarcinoma; OVCAR8 is ovarian carcinoma; PC3 is prostate adenocarcinoma; SK-OV-3 is ovarian adenocarcinoma; SU86.86 is pancreatic carcinoma; TOV-21G is avarian clear cell carcinoma; U2OS is bone osteosarcoma; is ASPC-I is pancreatic adenocarcinoma; BXPC-3 is pabcreatic adenocarcinoma; HL60 is promyeloblast promyelocytic leukemia; K562 is bone marrow chronic myelogenous leukemia; L1210 is mouse lymphocytic leukemia; MOLT3 is T lymphoblast acute lymphoblastic leukemia; MOLT4 is T lymphoblast acute lymphoblastic leukemia; SW620 is colorectal adenocarcinoma; THP-1 is monocyte acute monocytic leukemia; U937 is histiocytic lymphoma; and UACC-257 is melanoma.
(§2) Compounds and additional media were added 24 hours after cell plating. […] All compound testing was done in duplicate using 6.3 fold dilutions starting with 10 mM. […] Taxol and at least one additional control were run on all plates. Three microliters of the compound master plate were added to deep well blocks containing 750 μl of RPMI media. One hundred microliters were transferred from the compound/media deep well blocks to the plated cells resulting in a 500 fold dilution of the compounds. Cells were grown at 37° C., 5% CO2 for 48 hours.
(§3) Cells to be analyzed by photography were fixed and stained. One hundred microliters of media were removed and 100 μl of 9.3% formamide was added to each well. Plates were left on the benchtop for 45 minutes. A staining solution containing 1.55 μl of 1 mg/ml DAPI added to 18.75 ml PBS was warmed for 15 minutes at 37° C. The cells were aspirated prior to washing with 100 μl of PBS. Seventy microliters of PBS were aspirated and 170 μl of the DAPI solution were added to each well of fixed cells. Plates were left at room temperature for one hour then aspirated and washed twice with 100 μl of PBS. The stained cells were left at 4° C. for a minimum of 16 hours before photographic analysis with Array Scan II (Cellomics). Analysis of the photographic images to determine numbers of live cells (proliferation), apoptotic cells and dead cells, were according to the methods described in U.S. Utility patent application Ser. No. 10/652,440, which incorporated herein in its entirety.

H1299 cells = experiment: Cell proliferation PAD assay, H1299; assay type: cell-based; conditions: Homo sapiens, 48 hours
Experimental: as §1, §2, §3

TRAF6/Uev1A/Ubc13 = biological target: T1, TRAF6/Uev1A/Ubc13 (Homo sapiens, UniProt Q9Y4K3); experiment: TRAF6/Uev1A/Ubc13 plate-based ubiquitin ligase assay; assay type: biochemical
T1 sequence (Q9Y4K3 1-522): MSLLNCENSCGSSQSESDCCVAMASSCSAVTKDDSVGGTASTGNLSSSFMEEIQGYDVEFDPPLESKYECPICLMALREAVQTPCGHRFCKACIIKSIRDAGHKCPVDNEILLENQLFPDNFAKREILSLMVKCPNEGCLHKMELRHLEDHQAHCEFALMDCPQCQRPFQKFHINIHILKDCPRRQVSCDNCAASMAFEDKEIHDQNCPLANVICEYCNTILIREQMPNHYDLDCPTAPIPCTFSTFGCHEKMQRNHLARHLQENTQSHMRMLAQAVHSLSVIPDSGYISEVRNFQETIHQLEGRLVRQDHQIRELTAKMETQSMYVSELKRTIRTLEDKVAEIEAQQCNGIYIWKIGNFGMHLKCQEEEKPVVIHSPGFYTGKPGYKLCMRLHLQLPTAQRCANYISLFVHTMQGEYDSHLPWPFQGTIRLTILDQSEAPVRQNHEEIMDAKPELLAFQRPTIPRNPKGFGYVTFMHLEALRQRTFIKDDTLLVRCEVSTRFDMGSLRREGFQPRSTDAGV
Experimental: For the assays described below, the TRAF6/Uev1A/UBC13 assay is the biochemical plate-based assay of TRAF6 ligase activity using Ubc13 as the E2 enzyme. The gel-based assay is the biochemical solution-based TRAF6 ligase assay (by SDS-PAGE and Western blot) to confirm the plate-based ELISA assay. The APC assay is an assay which is another E3 ligase (APC2/APC11) biochemical assay.
A 96-well Ni-plate was blocked with 100 μl of 1% casein in PBS for 1 hour at room temperature. The plates were then washed three times with 200 μl of 1×PBS and 80 μl of a reaction buffer was added per well which contained 50 ng of Flag-ubiquitin, 50 ng of His-ubiquitin, 62.5 mM Tris pH 7.5, 6.25 mM MgCl2, 1.0 mM DTT, and 2 μM ATP. To each well was added 10 μl of a solution of the compound in DMSO. The reaction was started by adding 10 μl of a solution consisting of 10 ng human E1, 25 ng each of Uev1a and Ubc13, and 100 ng TRAF6 in the reaction buffer. The plates were shaken for 10 minutes and incubate at room temperature for 1 hour. After the incubation, the plates were washed three times with 200 μl 1×PBS in 0.05% Tween and 100 μl of an antibody mix consisting of anti-Flag (1:30,000 dilution; Sigma F-3165) and anti-Mouse IgG-HRP (1/150,000 dilution; Jackson Immunoresearch #115-035-146) in 1×PBS with 0.25% BSA. The plates were then incubated for another 1 hour at room temperature, and after incubation the plate was washed three times with 200 μl 1×PBS with 0.05% Tween. The amount of ubiquitin was measured by adding 100 μl of Lumino substrate (1:5 dilution) and reading the luminescence with a fluorimeter.
Table 2 below illustrates the inhibitory activity of the compounds of the invention determined by the TRAF6/Uev1A/Ubc13 assay as well as in the ICAM, APC and the ROC1/CUL1 Ubiquitin Ligase Assay (SCF Assay). The IC50 values were determined using a various concentrations of the compounds.

[1] = NCI-H1299, 3pt, read-out: H1299 3pt
[2] = NCI-H1299, 6pt, read-out: H1299 6pt

Structure (SMILES)	IC50 (A549 cells; 3pt, read-out: A549 3pt)	IC50 (H1299 cells; [1])	further results
O=S(=O)(Nc1cc(Cl)cc(Cl)c1)c1cccc2nonc12 [compound 52, N-(3,5-dichlorophenyl)-2,1,3-benzoxadiazole-4-sulfonamide]	≥ 20 µM	≥ 20 µM	
Cc1cc(F)ccc1NS(=O)(=O)c1cccc2nonc12 [compound 19, N-(4-fluoro-2-methylphenyl)-2,1,3-benzoxadiazole-4-sulfonamide]	≥ 20 µM	≥ 20 µM	
CSc1ccc(-c2ccc([N+](=O)[O-])c3nonc23)cc1 [compound 318, 7-[4-(Methylthio)phenyl]-4-nitro-2,1,3-benzoxadiazole]			IC50 (A549 cells; 6pt, read-out: A549 6pt): < 1 µM; IC50 (H1299 cells; [2]): < 1 µM
COCCNS(=O)(=O)c1cccc2nonc12 [compound 50, N-(2-methoxyethyl)-2,1,3-benzoxadiazole-4-sulfonamide]	≥ 20 µM	≥ 20 µM	
Fc1cc(F)cc(-c2cc(Cl)c3nonc3c2)c1 [compound 324, 4-Chloro-6-[3,5-(difluoro)phenyl]-2,1,3-benzoxadiazole]			IC50 (A549 cells; 6pt, read-out: A549 6pt): ≥ 20 µM; IC50 (H1299 cells; [2]): ≥ 20 µM
O=S(=O)(Nc1ccc(N2CCOCC2)c(Cl)c1)c1cccc2nonc12 [compound 66, N-(3-chloro-4-morpholin-4-ylphenyl)-2,1,3-benzoxadiazole-4-sulfonamide]	≥ 20 µM	≥ 20 µM	
O=S(=O)(Nc1ccccc1OC(F)(F)F)c1cccc2nonc12 [compound 67, N[2-(trifluoromethoxy)phenyl]2,1,3-benzoxadiazole-4-sulfonamide]	≥ 20 µM	≥ 20 µM	
O=S(=O)(NCC1CCCCC1)c1cccc2nonc12 [compound 53, N-(cyclohexylmethyl)-2,1,3-benzoxadiazole-4-sulfonamide]	≥ 20 µM	≥ 20 µM	
Cc1cc(C)cc(-c2cc(Cl)c3nonc3c2)c1 [compound 322, 4-Chloro-6-[3,5-(dimethyl)phenyl]-2,1,3-benzoxadiazole]			IC50 (A549 cells; 6pt, read-out: A549 6pt): ≥ 20 µM; IC50 (H1299 cells; [2]): ≥ 20 µM
O=S(=O)(c1cccc2nonc12)N1CCN(c2ccc(Cl)c(C(F)(F)F)c2)CC1 [compound 132, 4-({4-[4-chloro-3-(trifluoromethyl)phenyl]piperazin-1-yl}sulfonyl)-2,1,3-benzoxadiazole]	≥ 20 µM	≥ 20 µM	
COC(=O)c1ccc(NS(=O)(=O)c2ccc(Cl)c3nonc23)cc1 [compound 8, Methyl 4-{[(7-chloro-2,1,3-benzoxadiazol-4-yl)sulfonyl]amino}benzoate]	≥ 20 µM		IC50 (TRAF6/Uev1A/Ubc13): ≥ 20 µM
Cc1cccc(-c2cccc3nonc23)c1 [compound 306, 4-(3-Methylphenyl)-2,1,3-benzoxadiazole]			IC50 (A549 cells; 6pt, read-out: A549 6pt): ≥ 20 µM; IC50 (TRAF6/Uev1A/Ubc13): ≥ 20 µM
COc1ccccc1-c1cc(Cl)c2nonc2c1 [compound 330, 4-Chloro-6-(2-methoxyphenyl)-2,1,3-benzoxadiazole]			IC50 (A549 cells; 6pt, read-out: A549 6pt): ≥ 20 µM
O=[N+]([O-])c1cccc(-c2cc(Cl)c3nonc3c2)c1 [compound 331, 4-Chloro-6-(3-nitrophenyl)-2,1,3-benzoxadiazole]			IC50 (A549 cells; 6pt, read-out: A549 6pt): ≥ 20 µM
O=S(=O)(Nc1cccc2nonc12)c1ccc(Oc2ccc3c(C(F)(F)F)cc(C(F)(F)F)nc3n2)cc1 [compound 81, N-2,1,3-benzoxadiazol-4-yl-4-{[5,7-bis(trifluoromethyl)-1,8-naphthyridin-2-yl]oxy}benzenesulfonamide]			IC50 (TRAF6/Uev1A/Ubc13): ≥ 20 µM
FC(F)(F)c1cnc(N2CCN(c3ccc(N4CCOCC4)c4nonc34)CC2)c(Cl)c1 [compound 282, 4-{4-[3-chloro-5-(trifluoromethyl)pyridin-2-yl]piperazin-1-yl}-7-morpholin-4-yl-2,1,3-benzoxadiazole]			IC50 (TRAF6/Uev1A/Ubc13): ≥ 20 µM
N#Cc1cccnc1N1CCN(c2cc(N3CCCCC3)c([N+](=O)[O-])c3nonc23)CC1 [compound 297, 2-[4-(7-nitro-6-piperidin-1-yl-2,1,3-benzoxadiazol-4-yl)piperazin-1-yl]nicotinonitrile]			IC50 (TRAF6/Uev1A/Ubc13): ≥ 20 µM
O=[N+]([O-])c1ccc(N2CCSCC2)c2nonc12 [compound 237, 4-nitro-7-thiomorpholin-4-yl-2,1,3-benzoxadiazole]			IC50 (TRAF6/Uev1A/Ubc13): ≥ 20 µM
COC(=O)c1ccc(NS(=O)(=O)c2ccc(Sc3ccc4ccccc4n3)c3nonc23)cc1 [compound 316, Methyl 4-({[7-(quinolin-2-ylthio)-2,1,3-benzoxadiazol-4-yl]sulfonyl}amino)benzoate]			IC50 (TRAF6/Uev1A/Ubc13): ≥ 20 µM

More lines, main results first:

IC50 (A549 cells; 3pt, read-out: A549 3pt)	IC50 (H1299 cells; [1])	Structure (SMILES)	further results
≥ 20 µM	≥ 20 µM	O=S(=O)(c1cccc2nonc12)N1CCN(c2ccncc2)CC1 [compound 126, 4-[(4-pyridin-4-ylpiperazin-1-yl)sulfonyl]-2,1,3-benzoxadiazole]	
≥ 20 µM	≥ 20 µM	CCOC(=O)c1cccc(NS(=O)(=O)c2cccc3nonc23)c1 [compound 74, ethyl 3-[(2,1,3-benzoxadiazol-4-ylsulfonyl)amino]benzoate]	
≥ 20 µM	≥ 20 µM	O=S(=O)(Nc1ccccn1)c1cccc2nonc12 [compound 58, N-pyridin-2-yl-2,1,3-benzoxadiazole-4-sulfonamide]	
≥ 20 µM	≥ 20 µM	O=S(=O)(Nc1cc(F)ccc1F)c1cccc2nonc12 [compound 27, N-(2,5-difluorophenyl)-2,1,3-benzoxadiazole-4-sulfonamide]	
≥ 20 µM	≥ 20 µM	O=S(=O)(c1cccc2nonc12)N1CCN(c2cc(C(F)(F)F)ccn2)CC1 [compound 124, 4-({4-[4-(trifluoromethyl)pyridin-2-yl]piperazin-1-yl}sulfonyl)-2,1,3-benzoxadiazole]	
